Experimental data taken from PubChem BioAssay AID1996.
Values after ≈ are worked out from the molar mass of the structure shown.

conditions: buffer; pH 7.4; 200.0 µM

SMILES | solubility kinetic
CC1CCN(C(=O)COC(=O)CCc2c[nH]c3ccccc23)CC1 | 9 µg/mL (≈ 27.4 µM)
OCC(O)CN1CCN(c2ccccc2)CC1 (centres undefined) | > 35.4 µg/mL
Cc1cc(C)c(NC(=O)COC(=O)C23CC4CC(CC(O)(C4)C2)C3)c(Cl)c1 | > 58.8 µg/mL
OC(CNC1CCCCC1)C(F)(F)F (centres undefined) | > 31.7 µg/mL
CS(=O)(=O)N(CC(=O)N1CCCC1)c1ccc(Cl)cc1 | > 47.5 µg/mL
S=C1NCN(Cc2cccnc2)CN1Cc1ccccc1 | > 44.8 µg/mL
CC1Cc2ccccc2N1C(=O)c1ccc(F)c(S(=O)(=O)N2CCOCC2)c1 (centres undefined) | 50.3 µg/mL (≈ 124 µM)
CC1CN(S(=O)(=O)c2ccc(C(=O)N(C)C3CCCCC3)cc2)CC(C)O1 (centres undefined) | > 59.2 µg/mL
c1csc(-c2nc(N3CCOCC3)c3ccccc3n2)c1 | 2 µg/mL (≈ 6.73 µM)
Cn1c(=O)c2c(ncn2CC(=O)Nc2cc(S(=O)(=O)N3CCCCC3)ccc2O)n(C)c1=O | > 71.5 µg/mL
CCOc1ccc(CNc2ccc(N3CCCC3)cc2)cc1 | 3.1 µg/mL (≈ 10.5 µM)
CCCCNC(=O)NCCN1CCOCC1 | 31.9 µg/mL (≈ 139 µM)
Cc1cccnc1Nc1nc(-c2ccccc2)cs1 | 7.6 µg/mL (≈ 28.4 µM)
Clc1ccc(/C=C/c2ncc[nH]2)c(Cl)c1 | 7.7 µg/mL (≈ 32.2 µM)
Cc1ccc(OCc2nc(-c3cccs3)no2)c([N+](=O)[O-])c1 | 0.9 µg/mL (≈ 2.84 µM)
Oc1ccccc1-c1nc(NCc2ccccc2)c2ccccc2n1 | < 0.2 µg/mL
Cl.O=C1CCC(c2ccccc2)(C2CCN(Cc3ccccc3)CC2)C(=O)N1 (centres undefined) | 51.4 µg/mL
CC1(C)C2CCC1(C)C(OC(=O)C[n+]1ccccc1N)C2.[Br-] (centres undefined) | > 55.4 µg/mL
CC(C)(C)OC(=O)C(C)(C)O/N=C(\C(=O)O)c1csc(N)n1 | > 49.4 µg/mL
CN(CC(=O)O)S(=O)(=O)c1ccc2[nH]c(=O)c(=O)[nH]c2c1 | > 47 µg/mL
O=C1Nc2ccccc2/C1=C/c1nc2ccccc2c(=O)n1-c1ccc(O)cc1 | 1.9 µg/mL (≈ 4.98 µM)
O=[N+]([O-])c1cc(O)c(O)c([N+](=O)[O-])c1 | > 30 µg/mL
Cc1ccccc1OCC(=O)N1CCCCCCC1 | > 39.2 µg/mL
Cc1cccc(NC(=O)NC2CCCc3ccccc32)c1 (centres undefined) | 0.7 µg/mL (≈ 2.5 µM)
CC1(O)CCN2C(=O)CCc3cccc1c32 (centres undefined) | 19.3 µg/mL (≈ 88.8 µM)
O=C(Nc1ccccc1O)c1ccc(C(=O)c2ccccc2)o1 | < 0.7 µg/mL
Cc1cccc(-n2c(C)c(C)c3c(N)ncnc32)c1 | 32.7 µg/mL (≈ 130 µM)
Cc1ccc(NC(=O)N[C@H](C(=O)O)C(C)C)c(C)c1 | > 39.6 µg/mL
CC1CCN(C(=O)CC(NC(N)=O)c2ccccc2Cl)CC1 (centres undefined) | 44.2 µg/mL (≈ 136 µM)
CC1CN2C(c3ccc([N+](=O)[O-])cc3)=CSC2=N1 (centres undefined) | 26.3 µg/mL (≈ 101 µM)

The remaining lines, values ahead:

solubility kinetic | SMILES
> 48.1 µg/mL | N#Cc1cccc(S(=O)(=O)NCCOc2ccccc2F)c1
> 42.5 µg/mL | Cc1ccccc1C(=O)OCC(=O)N(C)c1ccccc1
34 µg/mL (≈ 110 µM) | CCOc1ccc(NC(=O)CN2CCc3ccccc3C2)cc1
20.6 µg/mL (≈ 58.1 µM) | COc1cc(N)c(Cl)cc1C(=O)OCC(=O)NCc1cccs1
48.6 µg/mL (≈ 146 µM) | COc1ccc(/C=C/C(=O)OCC(=O)NC2CCCC2)cc1OC
46.3 µg/mL (≈ 134 µM) | CC(NC(=O)c1ccco1)C(=O)OC(C)C(=O)NCc1ccccc1 (centres undefined)
15.8 µg/mL (≈ 45.4 µM) | O=C(COC(=O)CNC(=O)c1ccccc1)Nc1ccc(Cl)cn1
45 µg/mL (≈ 139 µM) | COc1ccc(N2C(=O)[C@@H]3C(c4cccnc4)=NO[C@@H]3C2=O)cc1
> 41.6 µg/mL | CCOc1ccc(NC(=O)COC(=O)C2CC2C)cc1 (centres undefined)
39.1 µg/mL (≈ 131 µM) | Cc1ccc(C)c(NC(=O)CN(C)C(=O)c2ccncc2)c1
46.1 µg/mL (≈ 144 µM) | NC(=O)COc1ccc(NS(=O)(=O)Cc2ccccc2)cc1
> 43.5 µg/mL | O=C(CNC(=O)c1ccccc1Cl)Nc1ccncc1
4.5 µg/mL (≈ 13.7 µM) | Cc1cccc(-c2noc(CCCC(=O)NC3CCCCC3)n2)c1
< 0.4 µg/mL | CCC1CN(C(=O)NCc2ccc(C)cc2)c2cc(Cl)ccc2O1 (centres undefined)
42.5 µg/mL (≈ 121 µM) | O=C(CNC(=O)c1ccco1)NCC(=O)OCc1ccccc1Cl
6.6 µg/mL (≈ 22 µM) | Cc1sc2ncnc(NCC(O)c3ccccc3)c2c1C (centres undefined)
< 0.7 µg/mL | COc1cccc2cc(C(=O)NCc3ccc(C)cc3)c(=O)oc12
> 46.1 µg/mL | CC(=O)c1cccc(S(=O)(=O)Nc2c(C)nn(C)c2C)c1
1.2 µg/mL (≈ 4.36 µM) | Cc1ccccc1CNC(=O)C(=O)Nc1nccs1
8.7 µg/mL (≈ 31.3 µM) | CC(=O)Nc1ccc(/C=C/c2nc3ccccc3o2)cc1
42.2 µg/mL (≈ 113 µM) | Cc1cc(NC(=O)COC(=O)C(C)Oc2ccc(Cl)cc2Cl)no1 (centres undefined)
> 30.7 µg/mL | Clc1nn2cnnc2c2ccccc12
39.6 µg/mL (≈ 147 µM) | O=C(NCCc1ccccc1)c1ccc2c(c1)OCO2
36.8 µg/mL (≈ 124 µM) | Cc1cc(C(=O)Nc2ccccc2Cl)c2ccccc2n1
3.1 µg/mL (≈ 9.77 µM) | CCCc1cc(=O)[nH]c(SCC(=O)Nc2ccc(C)cc2)n1
> 45.8 µg/mL | COc1cc(SC)ccc1C(=O)NCCCn1ccnc1
43 µg/mL (≈ 138 µM) | CC(C)(C)c1ccc(N2C(=O)CSC2c2cccnc2)cc1 (centres undefined)
31.8 µg/mL (≈ 93.4 µM) | COC(=O)c1ccc(NC(=O)C2CCCN(S(C)(=O)=O)C2)cc1 (centres undefined)
> 50.9 µg/mL | O=C(Nc1ccc(Oc2ccsc2C(=O)O)cc1)c1ccccc1
